In ChEMBL document CHEMBL5506016 (J Med Chem, 2024):
Calls of active or inactive are those of the source. No cut-off for these calls is given here.

Experiments:
[1] = target: T1, ADP-sugar pyrophosphatase (Homo sapiens, UniProt Q9UKK9); design: species or system HEK293
[2] = target: T1, ADP-sugar pyrophosphatase; conditions: filed as antagonist

| Compound | EC50 [1] [µM] | Activity [2] |
| --- | --- | --- |
| CC#CC(=O)N1CCC[C@H]1c1nc(-c2ccc(C(=O)Nc3ccccn3)cc2)c2c(N)nccn12 [ACALABRUTINIB] | > 10 | – |
| C=CC(=O)N1CCC[C@@H](n2nc(-c3ccc(Oc4ccccc4)cc3)c3c(N)ncnc32)C1 [IBRUTINIB] | 1.23 | – |
| Cn1c(=O)c2c(nc(N3CCN(CCCCN)CC3)n2Cc2nnc(-c3ccc(Cl)c(Cl)c3)o2)n(C)c1=O | – | Active |
| CC#CC(=O)N[C@H]1CCCN(c2c(F)cc(C(N)=O)c3[nH]c(C)c(C)c23)C1 [BRANEBRUTINIB] | > 10 | – |
